Data on 16 compounds can be found in patent US6211227A, “Tricyclic compounds” (Kyowa Hakko Kogyo Co., Ltd., priority 1997, dated 2001).

Assay [1] concerns detrusor muscle (isolated urinary bladder strips). Put plainly: Relaxation of rhythmic contraction induced by 15 mmol/l KCl in isolated urinary bladder strips (Test Example 2). The following applies: Cavia porcellus; KCl 15 mmol/l; cumulative, contact time 15-30 minutes; 50% relaxant of maximum response. Set-up: species or system guinea pig (male albino Hartley). The source says:
(§1) The activity of Compounds (I) as therapeutic agents for pollakiuria and urinary incontinence is described below. In the following Test Examples 1 and 2, IC50 value was defined as the concentration at which a test compound produces 50% relaxant of maximum response of detrusor muscle.
(§2) Male albino Hartley guinea pigs (350-550 g) were used as test animals. Each animal was exsanguinated to death under sodium pentobarbital anesthesia. The lower abdominal cavity was opened and its bladder was positioned. The connective tissue and the fat tissue around the bladder were removed, and the bladder was washed. After bilateral pelvic nerves on the surface of the abdominal side of the bladder were dissected, the bladder was taken out on the entrance of ureter. The bladder was washed with a Krebs-Henseleit buffer [composition (mM): NaCl 118, KCl 4.7, MgSO4 1.2, KH2 PO4 1.2, CaCl2 2.5, NaHCO3 25, and D-glucose 11.1], and then put on a gauze patch soaked in the buffer in a Petri dish. The dome and the trigone of the bladder were cut away. The back of the bladder was cut vertically in the middle with scissors, and the bladder was put flat on the gauze patch. The mucosa of the bladder was removed. The back of the bladder was cut vertically to get 6 strips which are ca. 2.0 mm wide and ca. 10 mm long.
(§3) Each strip was tied at one end to plastic rod and placed in a 20 ml organ bath containing a Krebs-Henseleit solution which was maintained at 37° C. and bubbled vigorously with a gas mixture of 5% CO2 and 95% O2. The pH of the solution was adjusted to about 7.4. The other end of the strip was tied via silk thread to a force displacement transducer (NIHON KODEN TB-611T). The transducer was connected to a polygraph (NIHON KODEN AP-621G), and the changes in tension were recorded on a recorder (YOKOGAWA type 3066). The polygraph was graduated by 0.5 g/cm.
Isolated urinary bladder strips were prepared in the same manner as in Test Example 1, and the tension of the preparation was measured. After the tension of the tissue was adjusted to be a steady state at 1 g, 15 mmol/l KCl was applied. After the rhythmic contraction was confirmed to appear by KCl, the tissue was washed. Then, 15 mmol/l KCl was applied again. After the rhythmic contraction induced by KCl became constant, a test compound was applied by the cumulative method (half-logarithmic increment). The contact time at each concentration was 15-30 minutes. The activity of the compound was expressed as the maximum relaxation rate (%) against the tension induced by the agonist.

The test system is the same in assay [2]. In words: Relaxation of contraction induced by 50 mmol/l KCl in isolated urinary bladder strips (Test Example 1). Set-up: species or system guinea pig (male albino Hartley). The following applies: Cavia porcellus, 0.5 h; KCl 50 mmol/l; cumulative, contact time 30 minutes; 50% relaxant of maximum response.
Source text: as §1, §2, §3
After the tissue was incubated in the buffer for 15 minutes without preloading, tension was added thereto for about one hour. The preloading tension added was 1.5 g and it was relaxed to about 1 g. The strips were allowed to equilibrate until their contractions became constant and tension was adjusted to 1 g. After this equilibrium period, 50 mmol/l KCl (the whole content in the bath) was added, and the tissue was washed 10 minutes later. KCl was added to the tissue at intervals of 30 minutes, followed by washing 10 minutes later, and KCl was applied repeatedly until the developed tension induced by KCl becomes constant. When the tissue was confirmed to contract constantly by the application of KCl and relax to the steady state after washing, 50 mmol/l KCl was applied again. After the tissue reached the steady state and the base line was obtained, a test compound was applied by the cumulative method (half-logarithmic increment). The contact time at each concentration was 30 minutes. The activity of the compound was expressed as the maximum relaxation rate (%) against the tension induced by the agonist.

Another assay relates to bladder. Put plainly: animal or person. The following applies: Rattus norvegicus, po, read-out: Contraction interval.

Where two headings read alike, the source gives them in different places.

On to `CC(O)(C(=O)Nc1ccc2c(c1)S(=O)(=O)Cc1ccccc1C2=O)C(F)(F)F` (stereo not drawn) [Compound 1-4, 5,5-Dioxo-3-(3,3,3-trifluoro-2-hydroxy-2-methylpropanoylamino)-6,11-dihydrodibenzo[b,e]thiepin-11-one], for which the IC50 amounted to 3.2 µM in assay [1] and 4.5 µM in assay [2].
Compound `CC(O)(C(=O)Nc1cccc2c1C(=O)c1ccoc1CS2(=O)=O)C(F)(F)F` (stereo not drawn) [Compound 1-7, 9,9-Dioxo-5-(3,3,3-trifluoro-2-hydroxy-2-methylpropanoylamino)-4,10-dihydrofuro[2,3-c][1]benzothiepin-4-one] registered an IC50 in assay [1] greater than 10 µM. Also, the response vs control in vivo at 1 mg/kg in the assay with bladder (1 h) was found to be 116 ± 9%; with bladder (2 h), 138 ± 12%; in the assay on bladder (3 h), 156 ± 17%; in the assay with bladder (4 h), 155 ± 16%; with bladder (5 h), 155 ± 17%.
`CC(O)(C(=O)Nc1ccc2c(c1)S(=O)(=O)Cc1occc1C2=O)C(F)(F)F` (stereo not drawn) [Compound 1-8, 9,9-Dioxo-7-(3,3,3-trifluoro-2-hydroxy-2-methylpropanoylamino)-4,10-dihydrofuro[2,3-c][1]benzothiepin-4-one]: in assay [1], the IC50 was 7.5 µM.
Compound `CC(O)(C(=O)Nc1ccc2c(c1)C(=O)c1sccc1CS2(=O)=O)C(F)(F)F` (stereo not drawn) [Compound 1-9, 5,5-Dioxo-8-(3,3,3-trifluoro-2-hydroxy-2-methylpropanoylamino)-4,10-dihydrothieno[3,2-c][1]benzothiepin-10-one] displayed an IC50 in assay [1] greater than 10 µM. Besides, the response vs control in vivo at 1 mg/kg in the assay on bladder (1 h) stood at 129 ± 23%; in the assay on bladder (2 h), 123 ± 10%; in the assay with bladder (3 h) it was 143 ± 12%; in the assay with bladder (4 h) it was 135 ± 16%; in the assay on bladder (5 h) it was 130 ± 5%.
For the compound `CC(O)(C(=O)Nc1cccc2c1C(=O)c1cccnc1CS2(=O)=O)C(F)(F)F` (stereo not drawn) [Compound 1-14, 10,10-Dioxo-6-(3,3,3-trifluoro-2-hydroxy-2-methylpropanoylamino)-5,11-dihydro[1]benzothiepino[3,4-b]pyridin-5-one], the IC50 in assay [1] was greater than 10 µM.
Turning to `CC(O)(C(=O)Nc1cccc2c1C(=O)c1cccc(F)c1CS2(=O)=O)C(F)(F)F` (stereo not drawn) [Compound 1-19, 5,5-Dioxo-7-fluoro-1-(3,3,3-trifluoro-2-hydroxy-2-methylpropanoylamino)-6,11-dihydrodibenzo[b,e]thiepin-11-one], in assay [1], the midpoint of inhibition, the IC50, lay at 4.3 µM. The response vs control in vivo at 1 mg/kg is 114 ± 9% in the assay on bladder (1 h); 139 ± 7% with bladder (2 h); 136 ± 11% in the assay with bladder (3 h); 145 ± 6% with bladder (4 h); 167 ± 15% in the assay with bladder (5 h).
For `CC(O)(C(=O)Nc1ccc2c(c1)S(=O)(=O)Cc1ccc(F)cc1C2=O)C(F)(F)F` (stereo not drawn) [Compound 1-22, 5,5-Dioxo-9-fluoro-3-(3,3,3-trifluoro-2-hydroxy-2-methylpropanoylamino)-6,11-dihydrodibenzo[b,e]thiepin-11-one], 6.5 µM corresponded to half-maximal inhibition in assay [1] (IC50).
In assay [1], `COc1ccc2c(c1)CS(=O)(=O)c1cccc(NC(=O)C(C)(O)C(F)(F)F)c1C2=O` (stereo not drawn) [Compound 1-24, 5,5-Dioxo-8-methoxy-1-(3,3,3-trifluoro-2-hydroxy-2-methylpropanoylamino)-6,11-dihydrodibenzo[b,e]thiepin-11-one] yielded an IC50 greater than 10 µM. The response vs control in vivo at 1 mg/kg in the assay on bladder (1 h) worked out at 140 ± 11%; in the assay on bladder (2 h), 121 ± 17%; with bladder (3 h), 160 ± 19%; with bladder (4 h), 169 ± 25%; with bladder (5 h), 169 ± 25%.
In the case of `COc1ccc(NC(=O)C(C)(O)C(F)(F)F)c2c1S(=O)(=O)Cc1ccsc1C2=O` (stereo not drawn) [Compound 1-28, 5,5-Dioxo-6-methoxy-9-(3,3,3-trifluoro-2-hydroxy-2-methylpropanoylamino)-4,10-dihydrothieno[3,2-c][1]benzothiepin-10-one], in assay [1], the concentration for half-maximal inhibition (IC50) was greater than 10 µM. Also, the response vs control in vivo at 1 mg/kg with bladder (1 h) was 127 ± 10%; in the assay on bladder (2 h), 139 ± 7%; in the assay with bladder (3 h) it was 133 ± 6%; with bladder (4 h) it was 140 ± 3%; in the assay with bladder (5 h), 145 ± 3%.
The compound `Cc1ccc(NC(=O)C(C)(O)C(F)(F)F)c2c1S(=O)(=O)Cc1ccsc1C2=O` (stereo not drawn) [Compound 1-29, 5,5-Dioxo-6-methyl-9-(3,3,3-trifluoro-2-hydroxy-2-methylpropanoylamino)-4,10-dihydrothieno[3,2-c][1]benzothiepin-10-one] gave an IC50 in assay [1] of 2.4 µM.
`CC(O)(C(=O)Nc1ccc(Cl)c2c1C(=O)c1sccc1CS2(=O)=O)C(F)(F)F` (stereo not drawn) [Compound 1-33, 6-Chloro-5,5-dioxo-9-(3,3,3-trifluoro-2-hydroxy-2-methylpropanoylamino)-4,10-dihydrothieno[3,2-c][1]benzothiepin-10-one] returned an IC50 in assay [1] of 0.7 µM. For the same compound, the response vs control in vivo at 1 mg/kg worked out at 124 ± 15% with bladder (1 h); 137 ± 15% with bladder (2 h); 137 ± 4% in the assay with bladder (3 h); 142 ± 10% in the assay with bladder (4 h); 148 ± 21% in the assay on bladder (5 h).
As to `CC(O)(C(=O)Nc1ccc(F)c2c1C(=O)c1sccc1CS2(=O)=O)C(F)(F)F` (stereo not drawn) [Compound 1-35, 5,5-Dioxo-6-fluoro-9-(3,3,3-trifluoro-2-hydroxy-2-methylpropanoylamino)-4,10-dihydrothieno[3,2-c][1]benzothiepin-10-one], the IC50 in assay [1] worked out at 2.5 µM. The response vs control in vivo at 1 mg/kg in the assay on bladder (1 h) stood at 115 ± 2%; in the assay on bladder (2 h), 133 ± 12%; with bladder (3 h) it was 131 ± 15%; with bladder (4 h), 152 ± 4%; in the assay with bladder (5 h), 148 ± 3%.
In assay [1], `O=C1c2sccc2CS(=O)(=O)c2cccc(NC(=O)C3CCCO3)c21` (stereo not drawn) [Compound 3-9, 5,5-Dioxo-9-(2-tetrahydrofuroylamino)-4,10-dihydrothieno[3,2-c][1]benzothiepin-10-one] showed a half-maximal inhibitory concentration (IC50) greater than 10 µM. The response vs control in vivo at 1 mg/kg amounted to 122 ± 7% in the assay with bladder (1 h); 128 ± 16% in the assay with bladder (2 h); 129 ± 18% in the assay on bladder (3 h); 150 ± 19% with bladder (4 h); 160 ± 21% in the assay on bladder (5 h).
In assay [1], `CC(C)(O)C(=O)Nc1cccc2c1C(=O)c1sccc1CS2(=O)=O` [Compound 3-12, 5,5-Dioxo-9-(2-hydroxy-2-methylpropanoylamino)-4,10-dihydrothieno[3,2-c][1]benzothiepin-10-one] returned an IC50 greater than 10 µM. The response vs control in vivo at 1 mg/kg amounted to 118 ± 18% in the assay with bladder (1 h); 153 ± 20% in the assay on bladder (2 h); 152 ± 17% with bladder (3 h); 161 ± 26% in the assay with bladder (4 h); 165 ± 19% in the assay on bladder (5 h).
Compound `CCC(C)(O)C(=O)Nc1cccc2c1C(=O)c1sccc1CS2(=O)=O` (stereo not drawn) [Compound 3-14, 5,5-Dioxo-9-(2-hydroxy-2-methylbutanoylamino)-4,10-dihydrothieno[3,2-c][1]benzothiepin-10-one] came in with an IC50 in assay [1] greater than 10 µM.
For the compound `CC1(C)Oc2ccc(C#N)cc2C(N2CCCC2=O)C1O` (stereo not drawn) [Cromakalim, cromakalim, reference compound], the response vs control in vivo at 1 mg/kg in the assay with bladder (1 h) came out at 124%; in the assay with bladder (2 h), 133%; in the assay with bladder (3 h), 142%; in the assay on bladder (4 h) it was 133%; in the assay on bladder (5 h), 133%.

The term IC50 denotes the concentration at which inhibition is half-maximal.
